Measured values reported in patent publication US20220202696A1, “AGENT FOR PROMOTING COLLAGEN PRODUCTION, MEDICAMENT, COSMETIC, AND METHOD FOR MANUFACTURING AGENT FOR PROMOTING COLLAGEN PRODUCTION” (Murata Manufacturing Co., Ltd., priority 2019, published 2022).

System: Normal human dermal fibroblasts
Assay: Type I collagen production in aging induction-treated fibroblasts (ELISA)
Format: cell-based
Settings: positive control at 25 μmol/L, 48 hours culture, aging induction-treated cells, ELISA of medium
Method: Normal human dermal fibroblasts were maintained using a DMEM medium (+5% FBS) in a culture vessel to confluence. […] After this procedure was repeated once daily for 4 days, the cells were further cultured in DMEM (10% FBS) for 3 days, and the cultured cells were obtained and used as aging induction-treated cells. The aging induction of the cells was confirmed by senescence-associated beta-galactosidase (SA-β-Gal, an aging marker) staining. The aging induction-treated cells were seeded in 48-well plate at a cell density of 5.0×10^4 cells/well using a DMEM medium (+5% FBS). […] Then, the cells were cultured for 48 hours, thereafter the medium was collected, and the amount of type I collagen in the medium was quantified by an ELISA method (direct ELISA using an anti-Human Collagen Type I antibody (Rabbit)).

SMILES: O=C1O[C@H]([C@@H](O)CO)C(O)=C1O [vitamin C]
- production of type I collagen: increased
